Results reported in the supplement of paper PMC6045584.
± gives the standard deviation of the averaged measurements.

Experiments:
[1] = compound: CN(Cc1cnc2nc(N)nc(N)c2n1)c1ccc(C(=O)N[C@@H](CCC(=O)O)C(=O)O)cc1 [METHOTREXATE]; assay: surviving fraction relative to DMSO-only wells; higher = less growth inhibition; conditions: exposure time: 5 days
Outline: (§1)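 Inhibitors were tested at 0.5, 1, 5, 10, 50, 100, 500 and 1000 nM, applied continuously for five days beginning 24 hours after log-phase tumour cells were seeded at 250–500 per well in 384-well plates. CellTiter-Glo luminescence served as the viability measure, expressed as surviving fraction against the median of DMSO-only wells. Each line, screened three times, was kept only with replicate Pearson r >0.7 and median Z' >0.3.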

[2] = compound: CCCS(=O)(=O)Nc1ccc(F)c(C(=O)c2c[nH]c3ncc(Cl)cc23)c1F [PLX-4720]; assay: as above; conditions: exposure time: 5 days
Outline: as §1

Row | Test System | surviving fraction ([1]; 0.5 nM) | surviving fraction ([1]; 1 nM) | surviving fraction ([1]; 5 nM) | surviving fraction ([1]; 10 nM) | surviving fraction ([1]; 50 nM) | surviving fraction ([1]; 100 nM) | surviving fraction ([1]; 500 nM) | surviving fraction ([1]; 1000 nM) | surviving fraction ([2]; 0.5 nM) | surviving fraction ([2]; 1 nM) | surviving fraction ([2]; 5 nM) | surviving fraction ([2]; 10 nM) | surviving fraction ([2]; 50 nM) | surviving fraction ([2]; 100 nM) | surviving fraction ([2]; 500 nM) | surviving fraction ([2]; 1000 nM)
1 | NY BONE | 0.978 ± 0.015 | 0.993 ± 0.013 | 1.07 ± 0.068 | 0.97 ± 0.037 | 0.56 ± 0.023 | 0.566 ± 0.03 | 0.475 ± 0.026 | 0.42 ± 0.025 | 0.905 ± 0.038 | 0.909 ± 0.026 | 0.933 ± 0.016 | 0.959 ± 0.02 | 0.949 ± 0.014 | 0.9663 ± 0.004 | 0.932 ± 0.0095 | 0.9273 ± 0.0065
2 | OS25HAL BONE | 0.998 ± 0.041 | 1.01 ± 0.035 | 1.05 ± 0.029 | 0.786 ± 0.031 | 0.357 ± 0.022 | 0.217 ± 0.017 | 0.166 ± 0.0076 | 0.164 ± 0.0066 | 0.902 ± 0.013 | 0.925 ± 0.016 | 0.934 ± 0.0061 | 0.942 ± 0.02 | 0.976 ± 0.01 | 0.98 ± 0.015 | 0.966 ± 0.0046 | 0.974 ± 0.014
3 | OSHN BONE | 1.12 ± 0.015 | 1.077 ± 0.0067 | 0.197 ± 0.0074 | 0.201 ± 0.0096 | 0.282 ± 0.031 | 0.265 ± 0.0081 | 0.251 ± 0.023 | 0.255 ± 0.031 | 0.859 ± 0.011 | 0.882 ± 0.017 | 0.89 ± 0.025 | 0.904 ± 0.018 | 0.944 ± 0.035 | 0.9783 ± 0.0029 | 0.978 ± 0.019 | 0.975 ± 0.016
4 | PCI30 HEADNECK | 0.988 ± 0.075 | 1.02 ± 0.062 | 1.11 ± 0.037 | 1.09 ± 0.075 | 1.05 ± 0.055 | 0.96 ± 0.029 | 0.811 ± 0.016 | 0.758 ± 0.071 | 1.03 ± 0.057 | 0.987 ± 0.0079 | 1.01 ± 0.032 | 1.06 ± 0.011 | 1 ± 0.024 | 1.07 ± 0.082 | 0.938 ± 0.087 | 0.959 ± 0.07
5 | RDES SOFT TISSUE | 1.2 ± 0.1 | 1.26 ± 0.021 | 0.831 ± 0.19 | 0.295 ± 0.015 | 0.055 ± 0.0036 | 0.0457 ± 0.0015 | 0.0463 ± 0.0046 | 0.0447 ± 0.0015 | 0.795 ± 0.13 | 0.683 ± 0.12 | 0.7 ± 0.079 | 0.747 ± 0.058 | 1.04 ± 0.11 | 0.989 ± 0.25 | 0.994 ± 0.054 | 0.793 ± 0.13
6 | S68 BREAST | 0.882 ± 0.3 | 0.879 ± 0.25 | 1.1 ± 0.15 | 1.21 ± 0.29 | 1.07 ± 0.13 | 1.21 ± 0.16 | 1.04 ± 0.18 | 1.17 ± 0.12 | 0.773 ± 0.17 | 0.685 ± 0.22 | 0.775 ± 0.18 | 0.778 ± 0.19 | 1 ± 0.31 | 1.06 ± 0.12 | 1.09 ± 0.16 | 0.962 ± 0.15
7 | SAOS2 BONE | 1.2 ± 0.051 | 1.18 ± 0.037 | 1.25 ± 0.05 | 1.25 ± 0.023 | 1.04 ± 0.031 | 0.841 ± 0.035 | 0.752 ± 0.018 | 0.753 ± 0.028 | 0.824 ± 0.019 | 0.866 ± 0.013 | 0.891 ± 0.0052 | 0.831 ± 0.049 | 1.08 ± 0.038 | 1.12 ± 0.077 | 1.108 ± 0.0092 | 1.13 ± 0.095
8 | SCC36 HEADNECK | 1.1 ± 0.11 | 1.1 ± 0.042 | 1.15 ± 0.076 | 1.16 ± 0.14 | 0.828 ± 0.022 | 0.731 ± 0.017 | 0.575 ± 0.046 | 0.626 ± 0.082 | 0.761 ± 0.06 | 0.694 ± 0.059 | 0.803 ± 0.036 | 0.76 ± 0.028 | 0.97 ± 0.058 | 0.983 ± 0.017 | 0.974 ± 0.13 | 0.958 ± 0.067
9 | SCC47 HEADNECK | 1.11 ± 0.097 | 1.15 ± 0.098 | 1.06 ± 0.019 | 0.946 ± 0.15 | 0.827 ± 0.04 | 0.814 ± 0.03 | 0.773 ± 0.033 | 0.789 ± 0.019 | 0.871 ± 0.025 | 0.853 ± 0.017 | 0.953 ± 0.041 | 0.884 ± 0.016 | 0.981 ± 0.03 | 1.09 ± 0.03 | 0.999 ± 0.14 | 1.01 ± 0.051
10 | SCC90 HEADNECK | 1.07 ± 0.075 | 1.05 ± 0.11 | 1.07 ± 0.066 | 1.09 ± 0.098 | 0.954 ± 0.015 | 0.852 ± 0.068 | 0.424 ± 0.06 | 0.416 ± 0.031 | 0.874 ± 0.13 | 0.819 ± 0.034 | 0.955 ± 0.011 | 0.965 ± 0.17 | 1.18 ± 0.12 | 1.25 ± 0.077 | 0.64 ± 0.1 | 0.539 ± 0.053
